Experiments:
NMDA-induced convulsion = assay: Inhibition of NMDA-induced convulsion (i.c.v. coinjection); assay type: in vivo, Male Swiss Webster mice
Experimental: Male Swiss Webster mice [(SW) fBR] 20-25 g (Canadian Breading Farms St. Constant, Quebec), were coinjected intracerebroventricullarly (i.c.v.) with various doses of test compound and NMDA (1 and 2 nmol; Sigma Chemical Co., St. Louis, Mo.) in total volume of 10 μl. […] The convulsive response to NMDA was within 5 minutes of injection, characterized by wild running, popcorn jumping and myoclonic seizures (i.e. repetitive movements involving all limbs simultaneously, usually accompanied by loss of righting reflex). A minimum of 15 animals were used in each treatment group. The number of mice convulsing in each group was recorded. The dose producing convulsions in 50% of the mice (CD50) was calculated by the method of Litchfield and Wilcoxon ("Manual and Pharmacological Calculations with Computer Programs", 2nd ed., Springer, N.Y., 1987).

Mice [1] = assay: Rotarod test (motor effects); assay type: in vivo; details: i.c.v.; for Max. % mice showing motor effect: rotarod 8 revolutions per min, *P ≤ 0.05 as compared with control
Excerpt: The rotarod treadmill for mice (model 7600, UGO Basile, Italy) was used to assess the motor effects of the test compounds. The method used was similar to the procedure described by Dunham and Miya (J. Am. Pharmac. Assoc., 1957, 46:208). The apparatus consisted of a rod with a diameter of 2.5 cm which was suspended horizontally 50 cm above a plain working area. The rod was turned at a speed of 8 revolutions per min. Circular perspex separators were placed at intervals along the rod so that five animals could be tested at the same time. Before administering any compound, all tested mice were placed on the turning rod for 1 min on two consecutive days. Mice that fell from the rod during this test were excluded. The test compounds were administered i.c.v. and the % of mice showing motor effects was monitored.

Mice [2] = assay: Locomotion and falling behavior; assay type: in vivo; details: i.c.v.; for % mice showing significant effect (falling): at min. dose for falling; for % mice showing significant effect (locomotion): at min. dose for locomotion; for min. dose for falling / min. dose for locomotion: observed 15 to 30 min after injection
Experimental: Mice were placed individually in observation cages for a 60 minute habituation period, injected i.c.v. with the different compounds and observed from 15 to 30 min. after injection. Locomotion and falling behavior were assessed according to the procedure of Koek and Colpaert (J. Pharm. Exp. Ther., 1990, 252:349). For each mouse the presence of locomotion (locomotion with all four legs moving for at least 15 seconds) and falling behavior (falling from rearing or standing position backward or to the side) was recorded. Statistical significance of drug-induced changes in the occurrence of a particular behavior was tested by the method of Fray et al […].

AMPA-induced convulsions = assay: Inhibition of AMPA-induced convulsions; assay type: in vivo, Male Swiss Webster mice; details: i.c.v.
Experimental: Male Swiss Webster mice [(SW) fBR]20-25 g, were coinjected intracerebroventricullarly (i.c.v.) with various doses of test compounds, α- and β-sulfallorphan, […]; Research Biochemical Inc.) kainic acid (0.25-0.75 nmol; Sigma Chemical Co.) and biculline (1-10 nmol; Research Biochemical Inc.) in total volume of 10 μl. […] The convulsive response to the AMPA, kainic acid and biculline was within 5 minutes of injection, characterized by wild running, popcorn jumping and myoclonic seizures (i.e. repetitive movements involving all limbs simultaneously, usually accompanied by loss of righting reflex). A minimum of 15 animals were used in each treatment group. The number of mice convulsing in each group was recorded. The dose producing convulsions in 50% of the mice (CD50) was calculated by the method of Litchfield and Wilcoxon. LD50, the dose producing mortality in 50% of the mice, was determined by Fisher's exect test. The results for both α- and β-sulfallorphan are summarized below in tables II and III.

[3] = test system: Kainic acid-induced convulsions; assay: Inhibition of kainic acid-induced convulsions; assay type: in vivo, Male Swiss Webster mice; details: i.c.v.
Experimental: (§1) Male Swiss Webster mice [(SW) fBR]20-25 g, were coinjected intracerebroventricullarly (i.c.v.) with various doses of test compounds, α- and β-sulfallorphan, with AMPA (0.25-2.0) nmol; Research Biochemical Inc.) kainic acid (0.25-0.75 nmol; Sigma Chemical Co.) and biculline (1-10 nmol; Research Biochemical Inc.) in total volume of 10 μl. […] The convulsive response to the AMPA, kainic acid and biculline was within 5 minutes of injection, characterized by wild running, popcorn jumping and myoclonic seizures (i.e. repetitive movements involving all limbs simultaneously, usually accompanied by loss of righting reflex). A minimum of 15 animals were used in each treatment group. The number of mice convulsing in each group was recorded. The dose producing convulsions in 50% of the mice (CD50) was calculated by the method of Litchfield and Wilcoxon. LD50, the dose producing mortality in 50% of the mice, was determined by Fisher's exect test. The results for both α- and β-sulfallorphan are summarized below in tables II and III.

[4] = test system: Bicuculline-induced convulsions; assay: Inhibition of bicuculline-induced convulsions; assay type: in vivo, Male Swiss Webster mice; details: i.c.v.
Experimental: as §1

| Structure (SMILES) | CD50 (NMDA-induced convulsion; 1 nmol NMDA) | Max. % mice showing motor effect (Mice [1]) | CD50 (NMDA-induced convulsion; 2 nmol NMDA) | other results |
| --- | --- | --- | --- | --- |
| C=CC[S+]1CC[C@]23CCCC[C@H]2[C@H]1Cc1ccc(O)cc13 (relative stereo) [compound 12, 3-hydroxy-17-deaza-17-allylthionium-17-thiamorphinan] | 0.07 nmol/mouse |  |  |  |
| CC(C)=CC[S+]1CC[C@]23CCCC[C@H]2[C@H]1Cc1ccc(O)cc13 (relative stereo) [compound 13, 3-hydroxy-17-deaza-17-dimethylallylthionium-17-thiamorphinan] | 0.19 nmol/mouse | 0% |  |  |
| Oc1ccc2c(c1)[C@@]13CCCC[C@H]1[C@@H](C2)[S+](CCc1ccccc1)CC3 (relative stereo) [compound 14, 3-hydroxy-17-deaza-17-phenethylthionium-17-thiamorphinan] | 0.99 nmol/mouse | 20% |  |  |
| C[S+]1CC[C@]23CCCC[C@H]2[C@H]1Cc1ccc(O)cc13 (relative stereo) [compound 17, 3-hydroxy-17-deaza-17-methylthionium-17-thiamorphinan] | 0.02 nmol/mouse | 60% |  |  |
| C[C@]12N[C@H](Cc3ccccc31)c1ccccc12 [MK-801] |  |  |  | % mice showing significant effect (falling) (Mice [2]): 50%; % mice showing significant effect (locomotion) (Mice [2]): 30%; min. dose for falling (Mice [2]): 1.50 nmol/mouse; min. dose for locomotion (Mice [2]): 0.25 nmol/mouse |
| C=CCN1CC[C@@]23CCCC[C@@H]2[C@@H]1Cc1ccc(O)cc13 [dextrallorphan] | 2.68 nmol/mouse |  | 43.2 nmol/mouse |  |
| COc1ccc2c(c1)[C@]13CCCC[C@@H]1[C@H](C2)N(C)CC3 [dextromethorphan] |  |  |  | % mice showing significant effect (falling) (Mice [2]): 27%; % mice showing significant effect (locomotion) (Mice [2]): 30%; min. dose for falling (Mice [2]): 0.20 nmol/mouse; min. dose for locomotion (Mice [2]): 0.10 nmol/mouse |
| CN1CC[C@@]23CCCC[C@@H]2[C@@H]1Cc1ccc(O)cc13 [dextrorphan, reference compound] | 0.55 nmol/mouse | 60% | > 100 nmol/mouse | motor effect (statement) (Mice [1]; α-sulfallorphan 30 nmol/mouse, dextrorphan 60 nmol/mouse): induces a significant rise in motor effect |
| C=CCN1CC[C@]23CCCC[C@H]2[C@H]1Cc1ccc(O)cc13 [levallorphan] | 1.06 nmol/mouse |  | > 20 nmol/mouse |  |
| CN1CC[C@]23CCCC[C@H]2[C@H]1Cc1ccc(O)cc13 [levorphanol] | 0.21 nmol/mouse |  | > 200 nmol/mouse |  |
| C=CC[S+]1CC[C@]23CCCC[C@H]2[C@H]1Cc1ccc(O)cc13 (stereo partly drawn) [β-sulfallorphan 16, 3-hydroxy-17-deaza-17-allylthionium-17-thiamorphinan] | 0.015 nmol/mouse | 20% | 0.28 nmol/mouse | CD50 (AMPA-induced convulsions; CD50 of AMPA (0.25-5 nmol/mouse) with 0.4 nmol/mouse β-sulfallorphan): 0.29 nmol/mouse; LD50 (AMPA-induced convulsions; LD50 of AMPA (0.25-5 nmol/mouse) with 0.4 nmol/mouse β-sulfallorphan, none = no mortality observed at dose tested): none; CD50 ([3]; CD50 of kainic acid (0.25-0.72 nmol/mouse) with 0.4 nmol/mouse β-sulfallorphan): 0.39 nmol/mouse; LD50 ([3]; LD50 of kainic acid (0.25-0.72 nmol/mouse) with 0.4 nmol/mouse β-sulfallorphan, none = no mortality observed at dose tested): none; CD50 ([4]; CD50 of bicuculline (1-10 nmol/mouse) with 0.4 nmol/mouse β-sulfallorphan): 3.12 nmol/mouse; LD50 ([4]; LD50 of bicuculline (1-10 nmol/mouse) with 0.4 nmol/mouse β-sulfallorphan, none = no mortality observed at dose tested): none; % mice showing significant effect (locomotion) (Mice [2]): 20%; locomotion and falling behavior (statement) (Mice [2]): less locomotion than dextromethorphan and required greater amount to exhibit a significant effect; min. dose for falling (Mice [2]): no effect; min. dose for locomotion (Mice [2]): 1.25 nmol/mouse |
